Measured values as given in ChEMBL document CHEMBL2424616, “Synthesis and antimicrobial activity of novel 5-(1-adamantyl)-2-aminomethyl-4-substituted-1,2,4-triazoline-3-thiones” (2013).
In brackets after ≈: the same amount, converted by molar mass.

How the values were obtained:
Type in all cases: functional
Candida albicans = assay: Antifungal activity against Candida albicans IFO 0583 assessed as growth inhibition at 200 ug/disc after 48 hrs by agar disc-diffusion method; details: IFO 0583, 48 h, read-out: DIZ
Pseudomonas aeruginosa = assay: Antibacterial activity against Pseudomonas aeruginosa IFO 3448 assessed as growth inhibition at 200 ug/disc after 24 hrs by agar disc-diffusion method; details: IFO 3448, 24 h, read-out: DIZ
Escherichia coli = assay: Antibacterial activity against Escherichia coli IFO 3301 assessed as growth inhibition at 200 ug/disc after 24 hrs by agar disc-diffusion method; details: IFO 3301, 24 h, read-out: DIZ
Micrococcus luteus = assay: Antibacterial activity against Micrococcus luteus IFO 3232 assessed as growth inhibition at 200 ug/disc after 24 hrs by agar disc-diffusion method; details: IFO 3232, 24 h, read-out: DIZ
Bacillus subtilis [1] = assay: Antibacterial activity against Bacillus subtilis IFO 3007 after 24 hrs by two fold dilution method; details: IFO 3007, 24 h
Bacillus subtilis [2] = assay: Antibacterial activity against Bacillus subtilis IFO 3007 assessed as growth inhibition at 200 ug/disc after 24 hrs by agar disc-diffusion method; details: IFO 3007, 24 h, read-out: DIZ
Staphylococcus aureus [3] = assay: Antibacterial activity against Staphylococcus aureus IFO 3060 after 24 hrs by two fold dilution method; details: IFO 3060, 24 h
Staphylococcus aureus [4] = assay: Antibacterial activity against Staphylococcus aureus IFO 3060 assessed as growth inhibition at 200 ug/disc after 24 hrs by agar disc-diffusion method; details: IFO 3060, 24 h, read-out: DIZ

Row | Structure (SMILES) | zone of inhibition at 200 µg/disc (Candida albicans) | zone of inhibition at 200 µg/disc (Pseudomonas aeruginosa) | zone of inhibition at 200 µg/disc (Escherichia coli) | zone of inhibition at 200 µg/disc (Micrococcus luteus) | MIC (Bacillus subtilis [1]) | zone of inhibition at 200 µg/disc (Bacillus subtilis [2]) | MIC (Staphylococcus aureus [3]) | zone of inhibition at 200 µg/disc (Staphylococcus aureus [4])
1 | Cn1c(C23CC4CC(CC(C4)C2)C3)nn(CN2CCN(c3ccccc3)CC2)c1=S | < 10 mm | < 10 mm | < 10 mm | 14 mm | 16 µg/mL (≈ 37.8 µM) | 18 mm | 8 µg/mL (≈ 18.9 µM) | 19 mm
2 | FC(F)(F)c1cccc(NCn2nc(C34CC5CC(CC(C5)C3)C4)n(-c3ccc(Cl)cc3)c2=S)c1 | < 10 mm | < 10 mm | < 10 mm | 17 mm | – | 16 mm | – | 16 mm
3 | CCOc1ccc(NCn2nc(C34CC5CC(CC(C5)C3)C4)n(C)c2=S)cc1 | < 10 mm | < 10 mm | < 10 mm | < 10 mm | – | < 10 mm | – | < 10 mm
4 | S=c1n(CNc2ccc(Br)cc2)nc(C23CC4CC(CC(C4)C2)C3)n1-c1ccc(Cl)cc1 | < 10 mm | < 10 mm | < 10 mm | < 10 mm | – | < 10 mm | – | < 10 mm
5 | CCOC(=O)N1CCN(Cn2nc(C34CC5CC(CC(C5)C3)C4)n(/N=C/c3ccc(O)cc3)c2=S)CC1 | < 10 mm | < 10 mm | < 10 mm | 14 mm | – | 16 mm | – | 17 mm
6 | Cn1c(C23CC4CC(CC(C4)C2)C3)nn(CNc2ccc(Br)cc2)c1=S | < 10 mm | < 10 mm | < 10 mm | < 10 mm | – | < 10 mm | – | < 10 mm
7 | Fc1ccc(NCn2nc(C34CC5CC(CC(C5)C3)C4)n(-c3ccc(Cl)cc3)c2=S)cc1 | < 10 mm | < 10 mm | < 10 mm | 12 mm | – | 16 mm | – | 14 mm
8 | Cn1c(C23CC4CC(CC(C4)C2)C3)nn(CNc2ccc(F)cc2)c1=S | < 10 mm | < 10 mm | < 10 mm | < 10 mm | – | 12 mm | – | 12 mm
9 | Cn1c(C23CC4CC(CC(C4)C2)C3)nn(CNc2ccccc2)c1=S | < 10 mm | < 10 mm | < 10 mm | < 10 mm | – | 12 mm | – | < 10 mm
10 | CCOc1ccc(NCn2nc(C34CC5CC(CC(C5)C3)C4)n(-c3ccc(Cl)cc3)c2=S)cc1 | < 10 mm | < 10 mm | < 10 mm | < 10 mm | – | < 10 mm | – | < 10 mm
11 | CCOC(=O)N1CCN(Cn2nc(C34CC5CC(CC(C5)C3)C4)n(/N=C/c3ccccc3O)c2=S)CC1 | < 10 mm | < 10 mm | < 10 mm | 16 mm | 4 µg/mL (≈ 7.62 µM) | 19 mm | 4 µg/mL (≈ 7.62 µM) | 18 mm
12 | COc1ccccc1N1CCN(Cn2nc(C34CC5CC(CC(C5)C3)C4)n(-c3ccc(Cl)cc3)c2=S)CC1 | < 10 mm | < 10 mm | < 10 mm | 16 mm | 16 µg/mL (≈ 29.1 µM) | 18 mm | 16 µg/mL (≈ 29.1 µM) | 18 mm
13 | S=c1n(CNc2ccccc2Cl)nc(C23CC4CC(CC(C4)C2)C3)n1-c1ccc(Cl)cc1 | < 10 mm | < 10 mm | < 10 mm | < 10 mm | – | 11 mm | – | 16 mm
14 | S=c1n(CN2CCN(Cc3ccccc3)CC2)nc(C23CC4CC(CC(C4)C2)C3)n1-c1ccc(Cl)cc1 | < 10 mm | < 10 mm | < 10 mm | 11 mm | – | 12 mm | – | 11 mm
15 | FC(F)(F)c1ccccc1NCn1nc(C23CC4CC(CC(C4)C2)C3)n(-c2ccc(Cl)cc2)c1=S | < 10 mm | 11 mm | 12 mm | 14 mm | 16 µg/mL (≈ 30.8 µM) | 19 mm | – | 17 mm
16 | Fc1ccccc1NCn1nc(C23CC4CC(CC(C4)C2)C3)n(-c2ccc(Cl)cc2)c1=S | < 10 mm | < 10 mm | < 10 mm | 12 mm | – | 12 mm | – | 11 mm
17 | S=c1n(CNc2cc(Cl)cc(Cl)c2)nc(C23CC4CC(CC(C4)C2)C3)n1-c1ccc(Cl)cc1 | < 10 mm | < 10 mm | < 10 mm | 11 mm | – | 13 mm | – | 12 mm
18 | Oc1ccccc1/C=N/n1c(C23CC4CC(CC(C4)C2)C3)nn(CN2CCN(Cc3ccccc3)CC2)c1=S | < 10 mm | 11 mm | 11 mm | 17 mm | 2 µg/mL (≈ 3.68 µM) | 21 mm | 2 µg/mL (≈ 3.68 µM) | 19 mm
19 | Fc1cccc(F)c1NCn1nc(C23CC4CC(CC(C4)C2)C3)n(-c2ccc(Cl)cc2)c1=S | 13 mm | 11 mm | 14 mm | 17 mm | 8 µg/mL (≈ 16.4 µM) | 20 mm | – | 18 mm
20 | S=c1n(CNc2ccccc2)nc(C23CC4CC(CC(C4)C2)C3)n1-c1ccc(Cl)cc1 | < 10 mm | < 10 mm | < 10 mm | < 10 mm | – | < 10 mm | – | < 10 mm
21 | CCN1CCN(Cn2nc(C34CC5CC(CC(C5)C3)C4)n(-c3ccc(Cl)cc3)c2=S)CC1 | < 10 mm | < 10 mm | < 10 mm | 15 mm | 8 µg/mL (≈ 16.9 µM) | 18 mm | – | 14 mm
22 | S=c1n(CN2CCN(c3ccccc3)CC2)nc(C23CC4CC(CC(C4)C2)C3)n1-c1ccc(Cl)cc1 | < 10 mm | < 10 mm | < 10 mm | 14 mm | – | 17 mm | – | 16 mm
